# Data reported in PubChem BioAssay (NCI).
#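 Five concentrations, 48 hours, 96-well plates. TGI: concentration producing complete growth inhibition.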
# Experiments:
# Assay in all cases: NCI tumour cell line growth inhibition, 48 h
# SF-268 CNS = system: SF-268 CNS
# SN12K1 renal = system: SN12K1 renal
# T-47D breast = system: T-47D breast
# DLD-1 colon = system: DLD-1 colon
# HOP-92 NSCLC = system: HOP-92 NSCLC
# BT-549 breast = system: BT-549 breast
# 786-0 renal = system: 786-0 renal
# SR leukemia = system: SR leukemia
# OVCAR-5 ovarian = system: OVCAR-5 ovarian
# OVCAR-4 ovarian = system: OVCAR-4 ovarian
# MALME-3M melanoma = system: MALME-3M melanoma
# KM12 colon = system: KM12 colon
# PC-3 prostate = system: PC-3 prostate
# UACC-62 melanoma = system: UACC-62 melanoma
# LOX IMVI melanoma = system: LOX IMVI melanoma
# U251 CNS = system: U251 CNS
# NCI/ADR-RES ovarian = system: NCI/ADR-RES ovarian
# SF-295 CNS = system: SF-295 CNS
# A549 NSCLC = system: A549 NSCLC
# OVCAR-3 ovarian = system: OVCAR-3 ovarian
# A498 renal = system: A498 renal
# SK-MEL-5 melanoma = system: SK-MEL-5 melanoma
# RPMI-8226 leukemia = system: RPMI-8226 leukemia
# SN12C renal = system: SN12C renal
# SK-OV-3 ovarian = system: SK-OV-3 ovarian
# UO-31 renal = system: UO-31 renal
# HCC-2998 colon = system: HCC-2998 colon
# K-562 leukemia = system: K-562 leukemia
# EKVX NSCLC = system: EKVX NSCLC
# MDA-MB-231 breast = system: MDA-MB-231 breast
# RXF 393 renal = system: RXF 393 renal
# NCI-H460 lung = system: NCI-H460 lung
# MDA-MB-435 = system: MDA-MB-435
# DMS 114 small cell lung = system: DMS 114 small cell lung
# CCRF-CEM leukemia = system: CCRF-CEM leukemia
# NCI-H23 lung = system: NCI-H23 lung
# SK-MEL-28 melanoma = system: SK-MEL-28 melanoma
# HS 578T breast = system: HS 578T breast
# HT29 colon = system: HT29 colon
# CAKI-1 renal = system: CAKI-1 renal
# SF-539 CNS = system: SF-539 CNS
# DMS 273 small cell lung = system: DMS 273 small cell lung
# LXFL 529 NSCLC = system: LXFL 529 NSCLC
# XF 498 CNS = system: XF 498 CNS
# NCI-H226 lung = system: NCI-H226 lung
# MOLT-4 leukemia = system: MOLT-4 leukemia
# SW-620 colon = system: SW-620 colon
# SNB-19 CNS = system: SNB-19 CNS
# ACHN renal = system: ACHN renal
# HOP-18 NSCLC = system: HOP-18 NSCLC
# MDA-N = system: MDA-N
# HCT-15 colon = system: HCT-15 colon
# OVCAR-8 ovarian = system: OVCAR-8 ovarian
# M19-MEL melanoma = system: M19-MEL melanoma
# UACC-257 melanoma = system: UACC-257 melanoma
# HOP-62 NSCLC = system: HOP-62 NSCLC
# IGROV1 ovarian = system: IGROV1 ovarian
# KM20L2 colon = system: KM20L2 colon
# SK-MEL-2 melanoma = system: SK-MEL-2 melanoma
# HCT-116 colon = system: HCT-116 colon
# DU-145 prostate = system: DU-145 prostate
# SNB-75 CNS = system: SNB-75 CNS
# COLO 205 colon = system: COLO 205 colon
# HL-60(TB) leukemia = system: HL-60(TB) leukemia
# NCI-H522 lung = system: NCI-H522 lung
# TK-10 renal = system: TK-10 renal
# M14 melanoma = system: M14 melanoma
# MCF7 breast = system: MCF7 breast
compound,measurement,setting,value
CCCCCC/C=C1\CCC(CN(C)C)C1=O (stereo not drawn),TGI,SF-268 CNS,14.3 µM
same,TGI,SN12K1 renal,4.35 µM
same,TGI,T-47D breast,9.81 µM
same,TGI,DLD-1 colon,6.18 µM
same,TGI,HOP-92 NSCLC,28.8 µM
same,TGI,BT-549 breast,53.1 µM
same,TGI,786-0 renal,3.99 µM
same,TGI,SR leukemia,11.7 µM
same,TGI,OVCAR-5 ovarian,30.8 µM
same,TGI,OVCAR-4 ovarian,45.3 µM
same,TGI,MALME-3M melanoma,20.7 µM
same,TGI,KM12 colon,6.68 µM
same,TGI,PC-3 prostate,24 µM
same,TGI,UACC-62 melanoma,14.9 µM
same,TGI,LOX IMVI melanoma,3.79 µM
same,TGI,U251 CNS,9.47 µM
same,TGI,NCI/ADR-RES ovarian,44.4 µM
same,TGI,SF-295 CNS,27 µM
same,TGI,A549 NSCLC,36.9 µM
same,TGI,OVCAR-3 ovarian,17.7 µM
same,TGI,A498 renal,32.1 µM
same,TGI,SK-MEL-5 melanoma,27.5 µM
same,TGI,RPMI-8226 leukemia,4.7 µM
same,TGI,SN12C renal,8.74 µM
same,TGI,SK-OV-3 ovarian,34.7 µM
same,TGI,UO-31 renal,28.9 µM
same,TGI,HCC-2998 colon,18.3 µM
same,TGI,K-562 leukemia,7.64 µM
same,TGI,EKVX NSCLC,42.3 µM
same,TGI,MDA-MB-231 breast,18 µM
same,TGI,RXF 393 renal,9.8 µM
same,TGI,NCI-H460 lung,35.1 µM
same,TGI,MDA-MB-435,21.6 µM
same,TGI,DMS 114 small cell lung,8.99 µM
same,TGI,CCRF-CEM leukemia,7.21 µM
same,TGI,NCI-H23 lung,23.2 µM
same,TGI,SK-MEL-28 melanoma,12 µM
same,TGI,HS 578T breast,40.3 µM
same,TGI,HT29 colon,14.5 µM
same,TGI,CAKI-1 renal,9.51 µM
same,TGI,SF-539 CNS,28.1 µM
same,TGI,DMS 273 small cell lung,11.4 µM
same,TGI,LXFL 529 NSCLC,3.8 µM
same,TGI,XF 498 CNS,7.49 µM
same,TGI,NCI-H226 lung,36.5 µM
same,TGI,MOLT-4 leukemia,18.7 µM
same,TGI,SW-620 colon,6.49 µM
same,TGI,SNB-19 CNS,30.8 µM
same,TGI,ACHN renal,22.2 µM
same,TGI,HOP-18 NSCLC,28.8 µM
same,TGI,MDA-N,17.1 µM
same,TGI,HCT-15 colon,6.61 µM
same,TGI,OVCAR-8 ovarian,13.5 µM
same,TGI,M19-MEL melanoma,7.25 µM
same,TGI,UACC-257 melanoma,17.7 µM
same,TGI,HOP-62 NSCLC,35.1 µM
same,TGI,IGROV1 ovarian,26.5 µM
same,TGI,KM20L2 colon,23.3 µM
same,TGI,SK-MEL-2 melanoma,26.6 µM
same,TGI,HCT-116 colon,9.55 µM
same,TGI,DU-145 prostate,41.3 µM
same,TGI,SNB-75 CNS,23.8 µM
same,TGI,COLO 205 colon,8.4 µM
same,TGI,HL-60(TB) leukemia,4.8 µM
same,TGI,NCI-H522 lung,6.28 µM
same,TGI,TK-10 renal,9.14 µM
same,TGI,M14 melanoma,16.7 µM
same,TGI,MCF7 breast,14.7 µM
